Values of other authors as cited in patent US20070237728A1, “Method and Composition for Dental Bleaching” (HIGH TECH LASER, priority 2000, published 2007).
Read-outs that look alike come from different tables or passages of the source.

Test system: teeth

SMILES | type of teeth discolouration caused (in vivo) | type of teeth discolouration caused (tetracycline staining of teeth)
CN(C)[C@@H]1C(=O)C(C(N)=O)=C(O)[C@@]2(O)C(=O)C3=C(O)c4c(O)cccc4[C@@](C)(O)[C@H]3[C@H](O)[C@@H]12 [oxytetracyclin] | yellow discolouration | 
CN(C)[C@@H]1C(O)=C(C(N)=O)C(=O)[C@@]2(O)C(O)=C3C(=O)c4c(O)cccc4[C@@](C)(O)[C@H]3C[C@@H]12 [tetracycline] |  | yellow discolouration
CN(C)[C@@H]1C(O)=C(C(N)=O)C(=O)[C@@]2(O)C(O)=C3C(=O)c4c(O)ccc(Cl)c4[C@@H](O)[C@H]3C[C@@H]12 [dimethylchlorotetracyclin] |  | yellow discolouration
